“And” between values parts separate entries of the source, which are not always exact repeats. Identical values can stand only once.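 A five-concentration, 48-hour dose response in 96-well plates underlies each endpoint, interpolated linearly between surrounding concentrations. GI50 is the concentration that inhibits growth by half. The concentration for full growth arrest is given as TGI.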
Experiments:
Assay in all cases: NCI anticancer screen, dose series, 48 h
A498 renal = tested on: A498 renal
COLO 205 colon = tested on: COLO 205 colon
SK-OV-3 ovarian = tested on: SK-OV-3 ovarian
LOX IMVI melanoma = tested on: LOX IMVI melanoma
IGROV1 ovarian = tested on: IGROV1 ovarian
NCI-H522 lung = tested on: NCI-H522 lung
OVCAR-4 ovarian = tested on: OVCAR-4 ovarian
KM12 colon = tested on: KM12 colon
CAKI-1 renal = tested on: CAKI-1 renal
UACC-257 melanoma = tested on: UACC-257 melanoma

Structure (SMILES) | GI50 (A498 renal) | TGI (A498 renal) | GI50 (COLO 205 colon) | TGI (COLO 205 colon) | GI50 (SK-OV-3 ovarian) | TGI (SK-OV-3 ovarian) | GI50 (LOX IMVI melanoma) | TGI (LOX IMVI melanoma) | GI50 (IGROV1 ovarian) | TGI (IGROV1 ovarian) | GI50 (NCI-H522 lung) | TGI (NCI-H522 lung) | GI50 (OVCAR-4 ovarian) | TGI (OVCAR-4 ovarian) | GI50 (KM12 colon) | TGI (KM12 colon) | GI50 (CAKI-1 renal) | TGI (CAKI-1 renal) | GI50 (UACC-257 melanoma) | TGI (UACC-257 melanoma)
O=C(Nc1ccc2[nH]c(C(=O)N3CC(CCl)c4c3cc([N+](=O)[O-])c3ccccc43)cc2c1)c1cc2ccccc2o1 (configuration not stated) | > 1100 µM | > 1100 µM | > 1100 µM | > 1100 µM | > 1100 µM | > 1100 µM | > 1100 µM | > 1100 µM | > 1100 µM | > 1100 µM | > 1100 µM | > 1100 µM | > 1100 µM | > 1100 µM | > 1100 µM | > 1100 µM | > 1100 µM | > 1100 µM | > 1100 µM | > 1100 µM
c1ccc(Nn2c(CCCCCCCCc3nnc(COc4ccccc4)n3Nc3ccccc3)nnc2COc2ccccc2)cc1 | 37.6 µM | > 300 µM | 3.18 µM and 19.6 µM | 8.81 µM and 77.1 µM | > 300 µM | > 300 µM | 5.35 µM and 4.04 µM | > 300 µM | 17.7 µM and 46 µM | > 300 µM | – | > 91.8 µM | 25.8 µM and 88.1 µM | > 300 µM | 5.7 µM and 2.69 µM | > 300 µM | 5.11 µM and 2.73 µM | 59.1 µM and 34.8 µM | – | > 86.5 µM
CN1CCC(C(=O)Nc2n[nH]c3nc(-c4ccc(O)cc4)c(Br)cc23)CC1 | – | – | 1 µM and 1.3 µM | 3.7 µM and 3.04 µM | 1.19 µM and 1.28 µM | > 25 µM | 0.574 µM and 0.661 µM | 5.45 µM and > 12.2 µM | 5.13 µM and 6.36 µM | > 25 µM | 0.599 µM and 0.603 µM | 1.52 µM and 1.62 µM | 0.986 µM and 1.17 µM | > 12.4 µM and 6.27 µM | 1.82 µM and 1.49 µM | > 25 µM | 8.62 µM and 6.77 µM | > 25 µM | 4.3 µM and 6.17 µM | 12.3 µM and 14.6 µM
Cn1c(/C=C(\C#N)c2cccc(C(F)(F)F)c2)nc2c(N3CCOCC3)nc(Cl)nc21 | 1.38 µM | 2.72 µM | 1.12 µM | 2.67 µM | 3.7 µM | 14.5 µM | 0.321 µM | 1.36 µM | 0.556 µM | 1.89 µM | 0.657 µM | 2.32 µM | 1 µM | 2.41 µM | 1.82 µM | 3.58 µM | 0.656 µM | 1.97 µM | 1.37 µM | 2.89 µM
Clc1cccc(N2CCN(CCN3CCc4c([nH]c5ccccc45)C3c3cccnc3)CC2)c1 (configuration not stated) | – | > 100 µM | – | > 84 µM | – | > 100 µM | – | > 93.1 µM | – | > 100 µM | – | > 100 µM | – | > 100 µM | – | > 100 µM | – | > 100 µM | – | > 100 µM
c1cncc(-c2nc3ccccc3s2)c1 | 50.7 µM | > 100 µM | > 100 µM | > 100 µM | > 100 µM | > 100 µM | > 100 µM | > 100 µM | 42.6 µM | > 100 µM | > 100 µM | > 100 µM | > 100 µM | > 100 µM | > 100 µM | > 100 µM | > 100 µM | > 100 µM | > 100 µM | > 100 µM
N#Cc1ccc(C2C3=C(CCCC3=O)OC3=C2C(=O)c2ccccc2C3=O)cc1 (configuration not stated) | 13.9 µM | 27 µM | 1.86 µM | 3.63 µM | 3.17 µM | 9.6 µM | 0.343 µM | 1.69 µM | 1.45 µM | 3.46 µM | 1.99 µM | 4.31 µM | 0.265 µM | 1.07 µM | 3.14 µM | 12.9 µM | 1.88 µM | 3.93 µM | 1.55 µM | 2.94 µM
O=C(NC12CC3CC(CC(C3)C1)C2)C(=O)c1c[nH]c2ccc([N+](=O)[O-])cc12 | – | 98 µM | – | > 100 µM | – | > 100 µM | – | > 52 µM | – | > 100 µM | – | > 100 µM | – | 54.4 µM | – | > 100 µM | – | > 100 µM | – | > 100 µM
CCCCN=C(NC#N)N(Cc1ccccc1)Cc1ccccc1 | – | 63.7 µM | – | 32.5 µM | – | 87.6 µM | – | 29.7 µM | – | 74.4 µM | – | 31.1 µM | – | > 100 µM | – | > 100 µM | – | 66.4 µM | – | 64.9 µM
CCOC(=O)NC1=C(N2CC2)C(=O)C(NC(=O)OCC)=C(N2CC2)C1=O | 8.08 µM and 5.41 µM | 20.3 µM and 9.75 µM and 12.5 µM | 15.1 µM and 8.56 µM | 25 µM and 33 µM and 51.1 µM | 9.93 µM and 8.49 µM | 25 µM and 20.3 µM and 31.8 µM | – | 17.1 µM and 11.9 µM | 8.21 µM and 7.5 µM | 25 µM and 18.1 µM and 30.6 µM | 5.95 µM and 4.17 µM | 17.5 µM and 9.09 µM and 9.12 µM | 12.8 µM and 7 µM | 24 µM and 11.8 µM and 17.7 µM | 16.7 µM | 25 µM and 35.3 µM | 2.53 µM and 3.42 µM | 13.2 µM and 18.3 µM and 23.7 µM | 6.96 µM | 25 µM and 19.9 µM
Nc1nc(NC2C=C(CO)C(O)C2O)c([N+](=O)[O-])c(=O)[nH]1 (configuration not stated) | – | > 100 µM | – | > 100 µM | – | > 100 µM | – | > 100 µM | – | > 100 µM | – | > 100 µM | – | > 100 µM | – | > 100 µM | – | > 100 µM | – | > 100 µM
Cc1cc(Oc2cnc(=O)[nH]c2)cs1 | – | > 100 µM | – | > 100 µM | – | > 100 µM | – | > 100 µM | – | > 100 µM | – | > 100 µM | – | – | – | > 100 µM | – | > 100 µM | – | > 100 µM
CN1CCN(C(=O)c2c(NC(=O)NS(=O)(=O)c3ccccc3)sc3c2CCCCC3)CC1 | 28.8 µM | 65.8 µM | – | – | – | – | 30 µM | 84.9 µM | > 100 µM | > 100 µM | 30.4 µM | 98.6 µM | – | – | 29.3 µM | 80.1 µM | 20.3 µM | 54.4 µM | 35.6 µM | > 100 µM
CCN(CC)CCCC(C)Nc1c2ccc(Cl)cc2nc2cc(OC)c(OC)cc12 (configuration not stated) | 7.07 µM | 22.2 µM | – | – | 2.65 µM | 8.87 µM | 1.23 µM | 2.64 µM | 2.15 µM | 9.96 µM | 2.35 µM | 5.76 µM | 1.34 µM | 3.33 µM | 2.54 µM | 10.6 µM | 2.01 µM | 5.78 µM | 2.23 µM | 4.1 µM
Cc1ccc(-c2cc(=O)c3cc(C)c(C)c(C(=O)O)c3o2)cc1 | – | > 100 µM | – | > 100 µM | – | > 100 µM | – | > 100 µM | – | > 100 µM | – | 54.5 µM | – | > 100 µM | – | > 100 µM | – | – | – | > 100 µM
CN(C(=O)C12C3(C(=O)C(C)(C)C)C4C5(C#N)C3C1(C(=O)C(C)(C)C)C5C42C(=O)C(C)(C)C)C(C)(C)C (configuration not stated) | – | > 50 µM | – | > 50 µM | – | > 50 µM | – | – | – | > 50 µM | – | > 50 µM | – | > 50 µM | – | > 50 µM | – | > 50 µM | – | > 50 µM
O=C(O)C1C(=O)Oc2c(cccc2[N+](=O)[O-])C1O (configuration not stated) | – | > 100 µM | – | > 100 µM | – | – | – | > 100 µM | – | > 100 µM | – | > 100 µM | – | > 100 µM | – | – | – | > 100 µM | – | > 100 µM
